Laboratory results from US8183405B2, “Obovatol derivatives or pharmaceutically acceptable salts thereof, preparation method thereof and pharmaceutical composition for the prevention and treatment of cancer containing the same as an active ingredient” (Korea Research Institute of Bioscience and Biotechnology, priority 2008, dated 2012).

Tests used:
Solubility (Table 1) = type: physicochemical; details: for Solubility Insoluble: solvents in which the compound is insoluble; for Solubility Soluble: solvents in which the compound is soluble
[1] = Assay for acute oral toxicity in rat; details: SD, in vivo, 500 mg/kg, oral administration, rats
Method: Specific pathogen free (SPF) SD rats 6 weeks old were used for this assay. The obovatol derivative prepared in Example 1 or 2 was dissolved in distilled water, and the solution was orally administered at a dose of 500 mg/kg to respective groups of two rats.
Autopsies were performed to check for abnormalities of the thoracic and abdominal organs with the naked eye.

human cancer cell line = experiment: Inhibitory effect on growth of cancer cell (WST-1); type: cell-based; details: for OD: 48 hours, WST-1, absorbance at 450 nm, control OD 0.604
Method: The compounds prepared in Examples 1, 2 and 3 were evaluated for inhibitory activity against the growth of a human cancer cell line using WST-1. Human cancer cell lines were incubated in 10% fetal bovine serum (FBS)-supplemented media at 37°C. in a 5% CO2 atmosphere, followed by detaching the cells with 0.05% trypsin-EDTA.
Cells were plated onto […] at a density of 4,000 cells (A549, MDA-MB-231), 5,000 cells (HEK293, NCI-H23) or 6,000 cells (HCA-7, HCT116, SW620, DU145) per well, which were counted using a hematocytometer.
After incubation in 10% FBS-supplemented media at 37°C. for 24 hours in a 5% CO2 incubator, the media was changed with fresh media containing a control (0.1% DMSO) or the compound of Example 1 in an amount of 5, 10, 15, 20, 25 or 30 μg/ml (dissolved in DMSO and diluted in the medium). After 48 hours of treatment, WST-1 (Roche) was added in an amount of 10 μl to each well and incubated for 2 hrs. Absorbance at 450 nm was read in an ELISA reader (Bio-Rad).

[2] = system: colorectal cancer cells (SW620); experiment: Apoptotic effect on cancer cells (annexin V-FITC/PI FACS); type: cell-based, human; details: 50 μM, 48 hours, 14.12% at pre-treatment
Method: Apoptosis was analyzed using flow cytometry. First, colorectal cancer cells (SW620) were treated with 0.1% DMSO (negative control), 0 μM, 30 μM or 50 μM of the compound of Example 1 for 48 hours and detached with 0.05% trypsin-EDTA. After being harvested through centrifugation, the cells were washed twice with PBS (phosphate-buffered saline) and suspended at a density of 1×10^6 cells/ml in a 1× binding buffer (10 mM Hepes/NaOH, pH 7.4, 140 mM NaCl, and 2.5 mM CaCl2). 100 μl of the cell suspension was transferred into a 5 ml culture tube, mixed with 5 μl of annexin V-FITC and 10 μl of PI (propidium iodide), and incubated at room temperature for 15 min in a light-tight condition. Then, 400 μl of 1×binding buffer was added to each tube, followed by FACS analysis for annexin V-FITC-stained cells (Moussa Alkhalaf, Abdulla El-Mowafy, Waleed Renno, Ousama Rachid, Ahmed Ali, and Raja Al-Attyiah, Archives of Medical Research 39, 162-168, 2006).
In FACS plots of FIG. 1, the distribution of stained cells is shown. Cell migration to the second quadrant and the fourth quadrant refers to an increase in chromosome number, meaning an increased number of cells in the G2/M phase or S phase.
The third quadrant and the fourth quadrant of the FACS plot indicate cells expressing the early apoptosis marker annexin V.

SMILES	Solubility Insoluble (Solubility (Table 1))	Solubility Soluble (Solubility (Table 1))	also measured
CCCc1ccc(Oc2cc(CCC)cc(O)c2O)cc1 [Example 1, 3-(4-propylphenoxy)-5-propylbenzene-1,2-diol]	Water	Alcohol, DMSO	LD50 [1]: ≥ 500 mg/kg; OD (human cancer cell line; 5 μg/ml): 0.592; OD (human cancer cell line; 10 μg/ml): 0.557; OD (human cancer cell line; 15 μg/ml): 0.474; OD (human cancer cell line; 20 μg/ml): 0.247; OD (human cancer cell line; 25 μg/ml): 0.149; OD (human cancer cell line; 30 μg/ml): 0.141; inhibit the growth of cancer cells (human cancer cell line; concentration of 20 μg/ml or higher): ≥ 50%; fraction of the cells migrating to the third quadrant (annexin V) [2]: 59.58%
C=CCc1ccc(Oc2cc(CC=C)cc(O)c2OC)cc1 [Example 2, 3-(4-allylphenoxy)-5-allyl-2-methoxyphenol]	Hexane, Water	Alcohol, DMSO	LD50 [1]: ≥ 500 mg/kg
C=CCc1ccc(Oc2cc(CC=C)cc(OC(=O)COC)c2OC(=O)COC)cc1 [Example 4, 1-(4-allylphenoxy)-5-allyl-2,3-di-2-methoxyacetyloxybenzene]	Hexane, Water	Alcohol, DMSO	–
C/C=C/c1ccc(Oc2cc(/C=C/C)cc(O)c2O)cc1 [Example 8, 3-(4-((E)-prop-1-enyl)phenoxy)-5-((E)-prop-1-enyl)benzene-1,2-diol]	Water	Alcohol, DMSO	–
C/C=C/c1ccc(Oc2cc(/C=C/C)cc(OC(=O)COC)c2OC(=O)COC)cc1 [Example 10, 1-(4-((E)-prop-1-enyl)phenoxy)-2,3-di-2-methoxyacetyloxy-5-((E)-prop-1-enyl)benzene]	Water	Alcohol, DMSO	–

Continued, in another order:

Solubility Insoluble (Solubility (Table 1))	Solubility Soluble (Solubility (Table 1))	SMILES	also measured
Hexane, Water	Alcohol, DMSO	C=CCc1ccc(Oc2cc(CC=C)cc(OC(C)=O)c2OC(C)=O)cc1 [Example 3, 1-(4-allylphenoxy)-5-allyl-2,3-diacetyloxybenzene]	–
Hexane, Water	Alcohol, DMSO	CCCc1ccc(Oc2cc(CCC)cc(O)c2OC)cc1 [Example 5, 3-(4-propylphenoxy)-2-methoxy-5-propylphenol]	–
Water	Alcohol, DMSO	CCCc1ccc(Oc2cc(CCC)cc(OC(C)=O)c2OC(C)=O)cc1 [Example 6, 1-(4-propylphenoxy)-2,3-diacetyloxy-5-propylbenzene]	–
Water	Alcohol, DMSO	CCCc1ccc(Oc2cc(CCC)cc(OC(=O)COC)c2OC(=O)COC)cc1 [Example 7, 1-(4-propylphenoxy)-2,3-di-2-methoxyacetyloxy-5-propylbenzene]	–
Water	Alcohol, DMSO	C/C=C/c1ccc(Oc2cc(/C=C/C)cc(OC(C)=O)c2OC(C)=O)cc1 [Example 9, 1-(4-((E)-prop-1-enyl)phenoxy)-2,3-diacetyloxy-5-((E)-prop-1-enyl) benzene]	–
